Laboratory results from ChEMBL document CHEMBL5360661, “Structure-Activity Relationship Study of 1H-Pyrrole-3-carbonitrile Derivatives as STING Receptor Agonists” (ACS Med Chem Lett, 2023).
Calls of active or inactive are those of the source. The calls are words filed in the database; no cut-off is given here.

Experiments:
Homo sapiens [1] = species on record: Homo sapiens; assay: Binding affinity to recombinant human STING R232H variant C-terminal domain (139 to 378 residues) expressed in Escherichia coli BL21 (DE3) cells assessed as thermal stabilization by measuring change in melting temperature at 50 uM incubated at 25 to 95 degreeC for 45 mins by SYPRO orange dye based fluorescence analysis
[2] = molecular target: T1, Stimulator of interferon genes protein (Homo sapiens, UniProt Q86WV6); assay: Agonist activity at STING in PMA-differentiated wildtype human THP1-Blue ISG cells harboring IRF-inducible SEAP reporter construct incubated for 24 hrs by QUANTI-Blue assay; type: cell-based
Target sequence in this assay (Q86WV6 whole entry, the tested form may be a part): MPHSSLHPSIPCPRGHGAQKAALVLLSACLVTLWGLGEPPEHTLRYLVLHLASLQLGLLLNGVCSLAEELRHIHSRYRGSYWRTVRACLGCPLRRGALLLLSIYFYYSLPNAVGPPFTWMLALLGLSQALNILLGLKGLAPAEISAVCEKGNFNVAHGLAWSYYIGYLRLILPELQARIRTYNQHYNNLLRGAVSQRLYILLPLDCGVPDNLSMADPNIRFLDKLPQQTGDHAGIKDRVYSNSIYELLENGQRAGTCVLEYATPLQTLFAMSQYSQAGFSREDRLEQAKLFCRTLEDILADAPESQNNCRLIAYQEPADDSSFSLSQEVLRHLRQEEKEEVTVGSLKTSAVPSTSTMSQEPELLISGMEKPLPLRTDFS

[3] = tested on: Stimulator of interferon genes protein (Homo sapiens), Q86WV6 [UNDEFINED MUTATION]; assay: Binding affinity to recombinant wildtype human STING R232 variant C-terminal domain (139 to 378 residues) expressed in Escherichia coli BL21 (DE3) cells assessed as thermal stabilization by measuring change in melting temperature at 50 uM incubated at 25 to 95 degreeC for 45 mins by SYPRO orange dye based fluorescence analysis
Stimulator of interferon genes protein (Homo sapiens), Q86WV6 [UNDEFINED MUTATION], sequence (Q86WV6 whole entry, looked up, stated change not applied, the tested form may be a part): as the sequence (Q86WV6 whole entry, the tested form may be a part) above

Homo sapiens [4] = species on record: Homo sapiens; assay: Binding affinity to recombinant human STING G230A and R293Q variant C-terminal domain (139 to 378 residues) expressed in Escherichia coli BL21 (DE3) cells assessed as thermal stabilization by measuring change in melting temperature at 50 uM incubated at 25 to 95 degreeC for 45 mins by SYPRO orange dye based fluorescence analysis
Homo sapiens [5] = species on record: Homo sapiens; assay: Binding affinity to recombinant human STING R293Q variant C-terminal domain (139 to 378 residues) expressed in Escherichia coli BL21 (DE3) cells assessed as thermal stabilization by measuring change in melting temperature at 50 uM incubated at 25 to 95 degreeC for 45 mins by SYPRO orange dye based fluorescence analysis
[6] = molecular target: T2, Stimulator of interferon genes protein (Mus musculus) (UniProt Q3TBT3); assay: Binding affinity to recombinant 6-His tagged mouse STING C-terminal domain (144 to 378 residues) expressed in Escherichia coli BL21 (DE3) cells assessed as thermal stabilization by measuring change in melting temperature at 50 uM incubated at 25 to 95 degreeC for 45 mins by SYPRO orange dye based fluorescence analysis
T2 sequence (whole entry): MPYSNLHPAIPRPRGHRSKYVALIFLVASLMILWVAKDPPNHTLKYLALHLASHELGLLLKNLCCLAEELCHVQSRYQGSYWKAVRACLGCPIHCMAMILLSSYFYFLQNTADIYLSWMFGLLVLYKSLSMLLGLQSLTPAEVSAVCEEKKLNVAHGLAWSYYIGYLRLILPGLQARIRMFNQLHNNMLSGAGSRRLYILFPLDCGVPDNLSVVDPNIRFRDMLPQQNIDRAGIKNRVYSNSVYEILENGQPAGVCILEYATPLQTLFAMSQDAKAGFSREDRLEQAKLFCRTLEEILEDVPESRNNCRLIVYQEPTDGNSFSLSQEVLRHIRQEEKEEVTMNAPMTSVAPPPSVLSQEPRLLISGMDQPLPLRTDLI

[7] = molecular target: T1, Stimulator of interferon genes protein; assay: Competitive inhibition of 5-FAM labelled diABZI binding to recombinant wildtype human STING R232 variant C-terminal domain (139 to 378 residues) expressed in Escherichia coli BL21 (DE3) cells incubated for 10 mins by fluorescence polarization assay
Target sequence in this assay (Q86WV6 whole entry, looked up, stated change not applied, the tested form may be a part): as the sequence (Q86WV6 whole entry, the tested form may be a part) above

[8] = Competitive inhibition of 5-FAM labelled diABZI binding to recombinant human STING R232H variant C-terminal domain (139 to 378 residues) expressed in Escherichia coli BL21 (DE3) cells incubated for 10 mins by fluorescence polarization assay
[9] = Competitive inhibition of 5-FAM labelled diABZI binding to recombinant human STING G230A and R293Q variant C-terminal domain (139 to 378 residues) expressed in Escherichia coli BL21 (DE3) cells incubated for 10 mins by fluorescence polarization assay
[10] = Competitive inhibition of 5-FAM labelled diABZI binding to recombinant human STING R293Q variant C-terminal domain (139 to 378 residues) expressed in Escherichia coli BL21 (DE3) cells incubated for 10 mins by fluorescence polarization assay
[11] = molecular target: T3, Stimulator of interferon genes protein (Mus musculus, UniProt Q3TBT3); assay: Competitive inhibition of 5-FAM labelled diABZI binding to recombinant 6-his tagged mouse STING C-terminal domain (144 to 378 residues) expressed in Escherichia coli BL21 (DE3) cells incubated for 10 mins by fluorescence polarization assay
T3 sequence (Q3TBT3 whole entry): T2 sequence (whole entry)

[12] = molecular target: T1, Stimulator of interferon genes protein; assay: Activation of cGAS-STING pathway in wildtype human THP1-Blue ISG cells assessed as induction of STING phosphorylation at Ser366 residue at 15 uM incubated upto 6 hrs by Western blot analysis; type: cell-based; settings: filed as activator
Target sequence in this assay (Q86WV6 whole entry, the tested form may be a part): as the sequence (Q86WV6 whole entry, the tested form may be a part) above

[13] = molecular target: T1, Stimulator of interferon genes protein; assay: Activation of cGAS-STING pathway in wildtype human THP1-Blue ISG cells assessed as induction of TBK1 phosphorylation at Ser172 residue at 15 uM incubated upto 6 hrs by Western blot analysis; type: cell-based; settings: filed as activator
Target sequence in this assay (Q86WV6 whole entry, the tested form may be a part): as the sequence (Q86WV6 whole entry, the tested form may be a part) above

[14] = molecular target: T1, Stimulator of interferon genes protein; assay: Activation of cGAS-STING pathway in wildtype human THP1-Blue ISG cells assessed as induction of IRF3 phosphorylation at Ser396 residue at 15 uM incubated upto 6 hrs by Western blot analysis; type: cell-based; settings: filed as activator
Target sequence in this assay (Q86WV6 whole entry, the tested form may be a part): as the sequence (Q86WV6 whole entry, the tested form may be a part) above

[15] = molecular target: T1, Stimulator of interferon genes protein; assay: Activation of cGAS-STING pathway in wildtype human THP1-Blue ISG cells assessed as induction of p65 phosphorylation at Ser536 residue at 15 uM incubated upto 6 hrs by Western blot analysis; type: cell-based; settings: filed as activator
Target sequence in this assay (Q86WV6 whole entry, the tested form may be a part): as the sequence (Q86WV6 whole entry, the tested form may be a part) above

[16] = molecular target: T1, Stimulator of interferon genes protein; assay: Activation of cGAS-STING pathway in wildtype human THP1-Blue ISG cells assessed as induction of STAT3 phosphorylation at Tyr705 residue at 15 uM incubated upto 6 hrs by Western blot analysis; type: cell-based; settings: filed as activator
Target sequence in this assay (Q86WV6 whole entry, the tested form may be a part): as the sequence (Q86WV6 whole entry, the tested form may be a part) above

[17] = molecular target: T1, Stimulator of interferon genes protein; assay: Activation of cGAS-STING pathway in human THP1-Dual KO-cGAS cells assessed as induction of STING phosphorylation at Ser366 residue at 15 uM incubated for 1 hrs by Western blot analysis; type: cell-based; settings: filed as activator
[18] = molecular target: T1, Stimulator of interferon genes protein; assay: Activation of cGAS-STING pathway in human THP1-Dual KO-cGAS cells assessed as induction of TBK1 phosphorylation at Ser172 residue at 15 uM incubated for 1 hrs by Western blot analysis; type: cell-based; settings: filed as activator
[19] = molecular target: T1, Stimulator of interferon genes protein; assay: Activation of cGAS-STING pathway in human THP1-Dual KO-cGAS cells assessed as induction of IRF3 phosphorylation at Ser396 residue at 15 uM incubated for 1 hrs by Western blot analysis; type: cell-based; settings: filed as activator
[20] = molecular target: T1, Stimulator of interferon genes protein; assay: Activation of cGAS-STING pathway in human THP1-Dual KO-cGAS cells assessed as induction of p65 phosphorylation at Ser536 residue at 15 uM incubated for 1 hrs by Western blot analysis; type: cell-based; settings: filed as activator
[21] = molecular target: T1, Stimulator of interferon genes protein; assay: Activation of cGAS-STING pathway in human THP1-Dual KO-cGAS cells assessed as induction of STAT3 phosphorylation at Tyr705 residue at 15 uM incubated for 1 hrs by Western blot analysis; type: cell-based; settings: filed as activator
[22] = molecular target: T1, Stimulator of interferon genes protein; assay: Activation of cGAS-STING pathway in human THP1-Dual KO-STING cells assessed as induction of STING phosphorylation at Ser366 residue at 15 uM incubated for 1 hrs by Western blot analysis; type: cell-based
[23] = molecular target: T1, Stimulator of interferon genes protein; assay: Activation of cGAS-STING pathway in human THP1-Dual KO-STING cells assessed as induction of TBK1 phosphorylation at Ser172 residue at 15 uM incubated for 1 hrs by Western blot analysis; type: cell-based
[24] = molecular target: T1, Stimulator of interferon genes protein; assay: Activation of cGAS-STING pathway in human THP1-Dual KO-STING cells assessed as induction of IRF3 phosphorylation at Ser396 residue at 15 uM incubated for 1 hrs by Western blot analysis; type: cell-based
[25] = molecular target: T1, Stimulator of interferon genes protein; assay: Activation of cGAS-STING pathway in human THP1-Dual KO-STING cells assessed as induction of p65 phosphorylation at Ser536 residue at 15 uM incubated for 1 hrs by Western blot analysis; type: cell-based
[26] = molecular target: T1, Stimulator of interferon genes protein; assay: Activation of cGAS-STING pathway in human THP1-Dual KO-STING cells assessed as induction of STAT3 phosphorylation at Tyr705 residue at 15 uM incubated for 1 hrs by Western blot analysis; type: cell-based
[27] = molecular target: T1, Stimulator of interferon genes protein; assay: Activation of cGAS-STING pathway in human THP-1 cells assessed as stimulation of IFNB1 gene expression at 15 uM by RT-qPCR analysis; type: cell-based; settings: filed as activator, time <= 8.0 hrs
[28] = molecular target: T1, Stimulator of interferon genes protein; assay: Activation of cGAS-STING pathway in human THP-1 cells assessed as stimulation of CXCL10 gene expression at 15 uM by RT-qPCR analysis; type: cell-based; settings: filed as activator, time <= 8.0 hrs
[29] = molecular target: T1, Stimulator of interferon genes protein; assay: Activation of cGAS-STING pathway in human THP-1 cells assessed as stimulation of IL6 gene expression at 15 uM by RT-qPCR analysis; type: cell-based; settings: filed as activator, time <= 8.0 hrs

C#Cc1cc(NC(=O)c2ccc(-n3ccc(C#N)c3)nn2)c(C(=O)O)cc1F
ΔTm (Homo sapiens [1]): 8 °C | EC50 [2]: 1.19 µM | ΔTm [3]: 6 °C | ΔTm (Homo sapiens [4]): 13 °C | ΔTm (Homo sapiens [5]): 7.5 °C | ΔTm [6]: 7.5 °C | IC50 [7]: 3.31 µM | IC50 [8]: 3.55 µM | IC50 [9]: 0.91 µM | IC50 [10]: 3.74 µM | IC50 [11]: 4.72 µM | Activity [12]: Active | Activity [13]: Active | Activity [14]: Active | Activity [15]: Active | Activity [16]: Active | Activity [17]: Active | Activity [18]: Active | Activity [19]: Active | Activity [20]: Active | Activity [21]: Active | Activity [22]: inactive | Activity [23]: inactive | Activity [24]: inactive | Activity [25]: inactive | Activity [26]: inactive | Activity [27]: Active | Activity [28]: Active | Activity [29]: Active
